Results: PMC5029629, “β-casein nanovehicles for oral delivery of chemotherapeutic drug combinations overcoming P-glycoprotein-mediated multidrug resistance in human gastric cancer cells” (Oncotarget, 2016)

Biological target: T1, β-casein (β-CN) (Bos taurus, UniProt P02666)
T1 construct: gene CSN2
T1 sequence (P02666 16-224): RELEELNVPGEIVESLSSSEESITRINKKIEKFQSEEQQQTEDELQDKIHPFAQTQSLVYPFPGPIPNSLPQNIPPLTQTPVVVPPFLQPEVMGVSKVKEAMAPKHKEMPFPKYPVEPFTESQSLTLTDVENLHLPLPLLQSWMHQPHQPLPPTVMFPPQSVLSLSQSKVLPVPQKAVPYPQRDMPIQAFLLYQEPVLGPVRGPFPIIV
Test: Trp143 fluorescence quenching, modified Stern-Volmer fit (combined static and dynamic)
Type: binding
Conditions: PBS pH 7.0, 0.1 M ionic strength, 2.5% DMSO, 23 °C, 1 mg/ml protein (micelles); KSV called association constant but also defined as Stern-Volmer overall quenching constant; ligand poorly soluble
Text: Trp143 fluorescence quenching, modified Stern-Volmer fit (combined static and dynamic) on β-casein (β-CN)

SMILES: CC(=O)O[C@H]1C(=O)[C@@]2(C)[C@H]([C@H](OC(=O)c3ccccc3)[C@]3(O)C[C@H](OC(=O)[C@H](O)[C@@H](NC(=O)c4ccccc4)c4ccccc4)C(C)=C1C3(C)C)[C@]1(OC(C)=O)CO[C@@H]1C[C@@H]2O [Paclitaxel]
- KSV ± SE (10^4 M^-1): 0.96 ± 0.07 10^4 M^-1

SMILES: COc1cc2c(cc1OC)CN(CCc1ccc(NC(=O)c3cc(OC)c(OC)cc3NC(=O)c3cnc4ccccc4c3)cc1)CC2 [Tariquidar]
- KSV ± SE (10^4 M^-1): 1.80 ± 0.16 10^4 M^-1
